According to patent US20090170867A1, “TRPV1 ANTAGONISTS INCLUDING SULFONAMIDE SUBSTITUENT AND USES THEREOF” (Shionogi & Co., Ltd., priority 2007, published 2009):

What was measured:
human TRPV1 [1] = target: T1, human TRPV1 (Homo sapiens, UniProt Q8NER1); experiment: Capsaicin-based assay, Protocol 2 (TRPV1/CHO cells, Fluo-4, FLIPR); type: cell-based; details: capsaicin 100 nM final, mean ± SEM, number of trials in parentheses, read-out: TRPV1 IC50 Potency, Human Capsaicin CHO (hCAP-CHO)
T1 construct: using primers designed surrounding the complete hTRPV1 open reading frame; expressed in transfected cells; host or cells: CHO-K1 cells stably transfected with pcDNA3.1(-)-hVR1 plasmid
T1 sequence (Q8NER1 whole entry): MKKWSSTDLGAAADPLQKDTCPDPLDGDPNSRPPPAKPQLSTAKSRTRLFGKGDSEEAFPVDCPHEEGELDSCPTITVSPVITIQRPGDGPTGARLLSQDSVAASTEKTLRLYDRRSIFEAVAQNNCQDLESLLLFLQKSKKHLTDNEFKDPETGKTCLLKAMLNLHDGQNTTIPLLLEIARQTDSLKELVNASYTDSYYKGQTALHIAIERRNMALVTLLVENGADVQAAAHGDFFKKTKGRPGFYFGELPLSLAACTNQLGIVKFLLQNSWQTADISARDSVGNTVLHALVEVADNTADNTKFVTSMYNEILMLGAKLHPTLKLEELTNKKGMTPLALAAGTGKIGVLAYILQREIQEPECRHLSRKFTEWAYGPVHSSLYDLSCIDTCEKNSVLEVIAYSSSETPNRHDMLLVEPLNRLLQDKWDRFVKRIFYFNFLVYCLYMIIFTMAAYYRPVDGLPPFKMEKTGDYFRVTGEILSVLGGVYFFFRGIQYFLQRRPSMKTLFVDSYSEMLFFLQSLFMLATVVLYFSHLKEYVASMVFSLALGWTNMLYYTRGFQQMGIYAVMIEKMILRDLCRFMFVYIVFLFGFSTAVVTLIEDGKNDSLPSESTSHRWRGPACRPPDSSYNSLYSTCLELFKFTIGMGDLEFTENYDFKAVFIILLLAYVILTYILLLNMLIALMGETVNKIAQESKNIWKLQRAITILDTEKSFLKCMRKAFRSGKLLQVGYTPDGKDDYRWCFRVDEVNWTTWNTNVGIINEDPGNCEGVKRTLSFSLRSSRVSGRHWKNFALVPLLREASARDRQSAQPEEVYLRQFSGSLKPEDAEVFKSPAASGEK
Source text: The TRPV1/CHO cell line was generated as described below. […] The resulting PCR products were purified from agarose gels using Gel Band Purification Kit (GE Healthcare Bioscience) and were subcloned into pCR-Blunt vector (Invitrogen). The cloned cDNA was fully sequenced using a fluorescent dye-terminator reagent (BigDye Terminator ver3.1 Cycle Sequencing Kit, Applied Biosystems) and ABI Prism 3100 genetic analyzer (Applied Biosystems). The pCR-Blunt vector containing the hTRPV1 cDNA was subjected to restriction digestion with EcoRI. The restriction fragment was subcloned into expression vector pcDNA3.1 (-) (Invitrogen) and named pcDNA3.1 (-)-hVR1 plasmid. The sequence of the cDNA encoding TRPV1 is available at GenBank accession number AJ277028. […] The cells were transfected with the pcDNA3.1 (-)-hVR1 plasmid using FuGENE6 (Roche) according to the manufacturer's protocol. 24 hr after transfection, neomycin-resistant cells were selected using 1 mg/mL G418 (Nacalai Tesque). […] The cells expressing hTRPV1 were cultured in the growth medium supplemented with 1 mg/mL G418. […] Subsequently, the cells were loaded by incubation in 0.1 mL of wash buffer containing Fluo-4 at 3 μM final concentration. After 1 hour, the cells were washed twice with 0.2 mL wash buffer and resuspended in 0.1 mL wash buffer. The plates were then transferred to a Fluorescence Imaging Plate Reader (Molecular Devices). Fluorescence intensity was monitored for 15 seconds to establish a baseline. […] The final concentration of the compound was adjusted to range from 100 μM to 1.5625 μM. […] Data were collected over the entire time course and analyzed using Excel and the curve-fitting formula GraphPad Prism.

human TRPV1 [2] = target: T1, human TRPV1; experiment: pH-based assay, Protocol 2 (TRPV1/CHO cells, Fura-2 AM, FDSS-3000, pH 5.0-5.1); type: cell-based; details: H2SO4 agonist, mean ± SEM, number of trials in parentheses, read-out: TRPV1 IC50 Potency, Human pH CHO (hpH-CHO)
Source text: For Protocol 2, a Chinese Hamster Ovary cell line (CHO) that has been engineered to constitutively express human recombinant TRPV1 was used (TRPV1/CHO cells). The TRPV1/CHO cell line was generated as described below.
The resulting PCR products were purified from agarose gels using Gel Band Purification Kit (GE Healthcare Bioscience) and were subcloned into pCR-Blunt vector (Invitrogen). The cloned cDNA was fully sequenced using a fluorescent dye-terminator reagent (BigDye Terminator ver3.1 Cycle Sequencing Kit, Applied Biosystems) and ABI Prism 3100 genetic analyzer (Applied Biosystems). The pCR-Blunt vector containing the hTRPV1 cDNA was subjected to restriction digestion with EcoRI. The restriction fragment was subcloned into expression vector pcDNA3.1 (−) (Invitrogen) and named pcDNA3.1 (−)-hVR1 plasmid. The sequence of the cDNA encoding TRPV1 is available at GenBank accession number AJ277028.
CHO-K1 cells were maintained in growth medium consisting of α-MEM, 10% FBS (Hyclone), and 100 IU/mL of penicillin-100 μg/mL of streptomycin mixed solution (Nacalai Tesque, Japan) at 37° C. in an environment of humidified 95% air and 5% CO2. The cells were transfected with the pcDNA3.1 (−)-hVR1 plasmid using FuGENE6 (Roche) according to the manufacturer's protocol. 24 hr after transfection, neomycin-resistant cells were selected using 1 mg/mL G418 (Nacalai Tesque). After 2 weeks, individual colonies were picked, expanded, and screened for the expression of hTRPV1 in the capsaicin-induced Ca^2+ influx assay (see below) with a FLIPR (Molecular Devices). A clone with the largest Ca^2+ response to capsaicin was selected and re-cloned by the same procedure. The cells expressing hTRPV1 were cultured in the growth medium supplemented with 1 mg/mL G418.
TRPV1/CHO cells were seeded in the 96-well clear-bottom black-wall plate (Nunc) at densities of 1-2×10^4 cells/well and grown in 100 μL of culture medium (alpha-MEM supplemented with 10% FBS, 20 mM HEPES, 1 mg/mL geneticin and 1% antibiotic-antimycotic mixed stock solution) for 1-2 days before the experiment.
Different agonist solutions with sulfuric acid concentrations of from 15 mM to 18 mM (see FIG. 1) were prepared by diluting 1M sulfuric acid with measuring buffer. The different sulfuric acid concentrations in the agonist solutions were selected such that a 1:4 dilution would result in a final sulfuric acid concentration of between 3.0 mM to 3.6 mM, respectively, as indicated in FIG. 1.
The cells were stimulated using 3.0 mM (well number B1-6), 3.1 mM (C1-6), 3.2 mM (D1-6), 3.3 mM (E1-6), 3.4 mM (F1-6), 3.5 mM (G1-6), or 3.6 mM (H1-6) H2SO4 or pH 7.2 measuring buffer without H2SO4 (A1-6) (FIG. 2).
(1) Culture medium was removed using an 8-channel-pipette (Rainin, USA) from the 96-well plate and the wells were refilled with 100 μL of loading buffer (20 mM HEPES, 115 mM NaCl, 5.4 mM KCl, 0.8 mM MgCl2, 1.8 mM CaCl2, 13.8 mM D-glucose, 2.5 mM probenecid, pH 7.4) containing 5 μM Fura-2 AM (Dojin, Japan).
(2) The 96-well plate was incubated at 37° C. for 45 min.
(3) The loading buffer was removed from each well. The cells were subsequently washed twice with 150 μL of measuring buffer (20 mM HEPES, 115 mM NaCl, 5.4 mM KCl, 0.8 mM MgCl2, 5.0 mM CaCl2, 13.8 mM D-glucose, 0.1% BSA, pH 7.4) (no probenecid). The wells were then refilled with 80 μL of measuring buffer.
(4) After an incubation at 4° C. for 15 min, the 96-well plate was transferred to FDSS-3000 (Hamamatsu Photonics, Japan).
(5) The Fura-2 fluorescent intensity was monitored at a wavelength of 340 nm and at 380 nm, respectively, at a rate of 0.5 Hz for a total of 240 seconds.

IC50 (human TRPV1 [1]) | IC50 (human TRPV1 [2]) | Compound
9.8 ± 2.3 nM | 0.8 ± 0.1 nM | CC(C)(C)c1ccc(NC(=O)N2CCN(c3ncc([C@H](O)CO)cc3Cl)CC2)cc1 [Compound K6, (S)—N-(4-tert-butylphenyl)-4-(3-chloro-5-(1,2-dihydroxyethyl)pyridin-2-yl)piperazine-1-carboxamide]
153 ± 24.4 nM | 57.4 ± 9.1 nM | O=C(Nc1ccc(C(F)(F)F)c(Cl)c1)N1CC=C(c2ncc(CO)cc2Cl)CC1 [Compound L2]
14.2 ± 1.4 nM | 5.8 nM | O=C(Nc1ccc(OC(F)(F)F)cc1)N1CCN(c2ncc([C@H](O)CO)cc2Cl)CC1 [Compound L6, (S)-4-(3-chloro-5-(1,2-dihydroxyethyl)pyridin-2-yl)-N-(4-(trifluoromethoxy)phenyl)piperazine-1-carboxamide]
37.5 ± 9 nM | 5.7 ± 0.3 nM | O=C(Nc1ccc(OC(F)(F)F)c(Cl)c1)N1CCC(F)(c2ncc([C@H](O)CO)cc2Cl)CC1 [Compound M1]
156 ± 5.6 nM | 42 ± 9.1 nM | O=C(Nc1ccc(C(F)(F)F)c(F)c1)N1CC=C(c2ncc(CO)cc2Cl)CC1 [Compound M2]
7 ± 1 nM | 3.5 ± 1 nM | O=C(Nc1ccc(C(F)(F)F)cc1)N1CCN(c2ncc([C@H](O)CO)cc2Cl)CC1 [Compound M6, (S)-4-(3-chloro-5-(1,2-dihydroxyethyl)pyridin-2-yl)-N-(4-(trifluoromethyl)phenyl)piperazine-1-carboxamide]
161 ± 16.6 nM | 27.3 ± 2.6 nM | CCOc1cc(NC(=O)N2CC=C(c3ncc(CO)cc3Cl)CC2)ccc1C(F)(F)F [Compound N2]
161 ± 41.7 nM | 223 ± 14 nM | O=C(Nc1ccc(C(F)(F)F)cn1)N1CC=C(c2ncc([C@@H](O)CO)cc2Cl)CC1 [Compound N3, (R)-4-(3-chloro-5-(1,2-dihydroxyethyl)pyridin-2-yl)-N-(5-(trifluoromethyl)pyridin-2-yl)-5,6-dihydropyridine-1(2H)-carboxamide]
162 ± 29.5 nM | 18.8 ± 4 nM | CCCOc1cc(NC(=O)N2CC=C(c3ncc(CO)cc3Cl)CC2)ccc1C(F)(F)F [Compound O2]
173 ± 40.3 nM | 44.4 nM | O=C(Nc1ccc(Br)c(C(F)(F)F)c1)N1CC=C(c2ncc([C@H](O)CO)cc2Cl)CC1 [Compound P2]
183 ± 38.1 nM | 28.5 nM | O=C(Nc1nc2ccc(Cl)cc2s1)N1CC=C(c2ncc([C@@H](O)CO)cc2Cl)CC1 [Compound P3]
51 ± 16.4 nM | 8.1 ± 0.7 nM | O=C(Nc1ccc(S(=O)(=O)C(F)(F)F)cc1)N1CC=C(c2ncc([C@H](O)CO)cc2Cl)CC1 [Compound Q1]
194 ± 27.1 nM | 85.9 ± 21.8 nM | O=C(Nc1ccc(OC(F)(F)F)cc1)N1CC=C(c2ncc(CO)cc2Cl)CC1 [Compound Q2]
200 ± 26.8 nM | 49.6 ± 3.4 nM | O=C(Nc1ccc(OC(F)(F)F)c(Br)c1)N1CC=C(c2ncc(CO)cc2Cl)CC1 [Compound R2]
205 ± 35.4 nM | 31.9 ± 2.5 nM | O=C(Nc1ccc(C(F)(F)F)c(Cl)c1)N1CC=C(c2ncc(CO)cc2Cl)CC1 [Compound S2]
17.7 ± 2 nM | 9.2 nM | Cc1cc(NC(=O)N2CC=C(c3ncc([C@H](O)CO)cc3F)CC2)ccc1OC(F)(F)F [Compound S3]
60.3 ± 19 nM | 29.7 ± 2.3 nM | O=C(Nc1ccc(Cl)c(C(F)(F)F)c1)N1CCC(F)(c2ncc([C@H](O)CO)cc2Cl)CC1 [Compound T1]

Compound | IC50 (human TRPV1 [1]) | IC50 (human TRPV1 [2])
O=C(Nc1nc2ccc(F)cc2s1)N1CCC(F)(c2ncc([C@H](O)CO)cc2Cl)CC1 [Compound L1, (S)-4-(3-chloro-5-(1,2-dihydroxyethyl)pyridin-2-yl)-4-fluoro-N-(6-fluorobenzo[d]thiazol-2-yl)piperidine-1-carboxamide] | 35.3 ± 12 nM | 27.5 ± 3.4 nM
O=C(Nc1ccc(C(F)(F)F)cc1)N1CC=C(c2ncc([C@@H](O)CO)cc2Cl)CC1 [Compound L3] | 37.1 ± 14.8 nM | 38.3 ± 4 nM
O=C(Nc1ccc(C(F)(F)F)c(Cl)c1)N1CC=C(c2ncc([C@@H](O)CO)cc2Cl)CC1 [Compound M3] | 187 ± 43.7 nM | 30 ± 2.1 nM
